The source of these data is PMC4598023 (PLoS ONE, 2015).

B1: murine amylin (peptide, UniProt P12968 38-74, looked up)
peptide: KCNTATCATQRLANFLVRSSNNLGPVLPPTNVGSNTY-NH2
modifications: disulfide 2-7; also: FITC (<1 mol/mol, position not given here) on labelled copy only
notes: murine amylin (islet amyloid polypeptide), the 37-residue hormone; numbers count on: the mature protein; The unlabelled ligand and the FITC-labelled copy are written as one molecule; also called free murine amylin; non-conjugated amylin; source: synthetic peptide, bought: Genemed Synthesis Inc

The conditions of data set [1]: cited from earlier work. The source says:
One additional limitation for the use of the currently available amylinomimetic compound is the lack of ability for mimicking the basal levels of amylin in the fasting state. […] (Fig 6A) and thus a sustained release of amylin of an increasing in its t1/2 would serve as potential strategies for the restoration of basal hormone levels. […] Additionall ...

Data set [2] can be described thus: Pharmacokinetics after subcutaneous administration in mice (serum amylin by ELISA). It counts as in vivo. Particulars: Swiss male mice, s.c., 400 μg peptide/kg; for level at time molar at 5 s / level at time molar at 0.5 min / level at time molar at 1 min / level at time molar at 2 min / level at time molar at 4 min / level at time molar at 0.8 h: male, Swiss, 400 ug peptide/kg, ELISA, read-out: amylin concentration (serum); for level at time molar at 5 s: Time 0.0833 (head: min); for level at time molar at 0.5 min: Time 0.5 (head: min); for level at time molar at 1 min: Time 1 (head: min); for level at time molar at 2 min: Time 2 (head: min); for level at time molar at 4 min: Time 4 (head: min); for level at time molar at 0.8 h: Time 48 (head: min). As to the method:
Swiss male mice (8 weeks old; n = 4 per group) were administrated of free or monoPEGylated human amylin (both at 400 μg peptide / kg body weight) by subcutaneous route. At the indicated time interval, blood was collected with glass capillary tubes from retro-orbital access and the serum was separated. The concentration of amylin in the plasma was evaluated by ELISA (Merck Millipore, cat # EZHA-52K) by following the manufacturer protocol. The sensitivity of the ELISA assay kit for the monoPEGylated human amylin product was similar to the non-conjugated human amylin as inferred from control analytical curves. In case needed, the mice plasma samples were diluted accordingly in order to achieve the desired concentration range of the ELISA kit. Glucagon was evaluated from the same serum samples, by using an ELISA kit (Merck Millipore, Cat # EZGLU-30K) according to instructions of the manufacturer.
Continuous lines are best fitting of single-exponential decay function to data. b) Modulation of glucagon. […] The raw data can be found in S2 File.

Another data set has as its system Trypsin. Nature of the data set: trypsin in 25 mM ammonium bicarbonate, after reduction with dithiothreitol and blockage with iodoacetamide. As to conditions: 37°C, up to 18 h.
Data set [3] concerns the target T1, human receptor-activity modifying protein 3 Extracellular Topological Domain (human, UniProt O60896 28-117, fluorescein (FITC, below 1 mol per mol protein, position not stated)).
T1 construct: human receptor-activity modifying protein 3, extracellular topological domain, residues 28-117 of O60896; pET28b construct with a thrombin cleavage site after the N-terminal histidine tag; no cleavage is told; also called RAMP3-ETD; RAMP3
T1 sequence (looked up): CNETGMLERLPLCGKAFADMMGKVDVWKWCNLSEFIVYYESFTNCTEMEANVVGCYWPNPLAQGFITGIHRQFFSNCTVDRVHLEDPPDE
Nature of the data set: fluorescence polarisation; fluorescence anisotropy of the FITC-labelled protein (50 nM murine amylin, CTR1 or RAMP3) against total concentration of unlabelled ligand; PBS pH 7.4, 25°C; ex 480 nm, em 520 nm, cut-off filter 515 nm. Particulars: both partners purified.

The target of the data set “murine amylin” is B1. The description is as above. Particulars: both partners purified.
[4] abbreviates: fit of serum concentration vs time.
[5] abbreviates: mouse, in vivo, sc, replicate column 1.
Where [6] appears, read: mouse, in vivo, sc, replicate column 2.

Like-named read-outs stand apart in the source and are kept apart here. Bridges are numbered along the chain shown (N, C = ends). Where no end group is shown, it is not given here.

For `CC[C@H](C)[C@H](NC(=O)[C@H](C)NC(=O)CNC(=O)[C@H](Cc1ccccc1)NC(=O)[C@H](CC(N)=O)NC(=O)[C@H](CC(N)=O)NC(=O)[C@H](CO)NC(=O)[C@H](CO)NC(=O)[C@H](Cc1c[nH]cn1)NC(=O)[C@@H](NC(=O)[C@H](CC(C)C)NC(=O)[C@H](Cc1ccccc1)NC(=O)[C@H](CC(N)=O)NC(=O)[C@H](C)NC(=O)[C@H](CC(C)C)NC(=O)[C@H](CCCNC(=N)N)NC(=O)[C@H](CCC(N)=O)NC(=O)[C@@H](NC(=O)[C@H](C)NC(=O)[C@@H]1CSSC[C@H](NC(=O)[C@@H](N)CCCCN)C(=O)N[C@@H](CC(N)=O)C(=O)N[C@@H]([C@@H](C)O)C(=O)N[C@@H](C)C(=O)N[C@@H]([C@@H](C)O)C(=O)N1)[C@@H](C)O)C(C)C)C(=O)N[C@@H](CC(C)C)C(=O)N[C@@H](CO)C(=O)N[C@@H](CO)C(=O)N[C@H](C(=O)N[C@@H](CC(N)=O)C(=O)N[C@H](C(=O)NCC(=O)N[C@@H](CO)C(=O)N[C@@H](CC(N)=O)C(=O)N[C@H](C(=O)N[C@@H](Cc1ccc(O)cc1)C(N)=O)[C@@H](C)O)C(C)C)[C@@H](C)O` [human amylin], in data set [1], the “half-life (t1/2)” value was 15 to 20 min. In data set [2] ((unit not given)), the “Half Life (One phase decay, best-fit value)” value was found to be 0.3893 and the “Tau (One phase decay, best-fit value)” value is recorded as 0.5616. Besides, in data set [2] (setting [4]), the “K (One phase decay, best-fit value)” value was found to be 1.781; the “Plateau (One phase decay, best-fit value)” value worked out at 184.9; the “Span (One phase decay, best-fit value)” value worked out at 6701; the “Y0 (One phase decay, best-fit value)” value was determined as 6886. Further, in data set [2] (setting [5]), the level at time molar at 5 s was found to be 6630 nM, the level at time molar at 0.5 min came to 4690 nM, the level at time molar at 1 min was found to be 2720 nM and the level at time molar at 2 min worked out at 593 nM. Further, in data set [2] (setting [5]), the level at time molar at 4 min was found to be 198 nM and the level at time molar at 0.8 h amounted to 22.7 nM. In data set [2] (setting [6]), the level at time molar at 5 s came to 6710 nM, the level at time molar at 0.5 min was 659 nM, the level at time molar at 1 min was 423 nM and the level at time molar at 2 min is 324 nM. Also, in data set [2] (setting [6]), the level at time molar at 4 min is 207 nM and the level at time molar at 0.8 h worked out at 18.2 nM. This molecule yielded a half-life in data set [2] (mouse, in vivo, sc, serum amylin by ELISA, single-exponential decay fit, n = 4 per group) of 23 min.
As to “KCNTATCATQRLANFLVHSSNNFGAILSSTNVGSNTY-CONH2”, the cleaved bond entry in the data set with Trypsin is “Arg11-L12”.
On to B1, for which, in data set [3], the binding result was “binds”.

B2: monoPEGylated human amylin (peptide, UniProt P10997 34-70, looked up)
peptide: KCNTATCATQRLANFLVHSSNNFGAILSSTNVGSNTY-NH2
modifications: disulfide 2-7; also: one methoxy-PEG 5 kDa (mPEG succinimidyl carbonate) at an amino group of Lys1, N-terminal region
notes: human amylin (islet amyloid polypeptide, IAPP), the 37-residue hormone, amino acids 1 to 37; numbers count on: the mature protein; The PEG site was placed by trypsin digestion and MALDI-ToF-MS: fragment 12-37 is unmodified; also called PEGylated amylin; hAmylin-PEG
With B2, the binding result (in data set [3]; with murine amylin) was “binds” in each case.
